From patent US20090264388A1, “Compounds and Methods of Treating Disorders Associated With Activation of Metachromatic Cells” (Valorisation Recherche HSCM, Limited Partnership, priority 2006, published 2009)
“Also recorded” adds a separate entry of the source. Where a name gives a salt, the structure may show the parent alone. Read-outs that look alike come from different tables or passages of the source.

Key:
RBL-2H3 cells [1] = assay: Antigen (DNP-BSA)-induced β-hexosaminidase release (degranulation) in IgE-sensitized RBL-2H3 cells; type: cell-based, rat; settings: for effect on antigenic degranulation / β-hexosaminidase release: DNP-BSA 5 ng/ml and 40 ng/ml, antagonist concentration not stated; for blockade of IgE-dependent activation and degranulation of metachromatic cells, agent alone: antigen-induced maximal degranulation (FIG. 21-28)
Description: The rat basophilic cell line RBL-2H3 is an art recognized model for studying the activation of metachromatic cells through FcεRI (Oliver et al., “Signal transduction and cellular response in RBL-2H3 mast cells,” Prog. Allergy 42:185-245, 1988).
(§1) The below experiments used the rat basophilic cells RBL-2H3 commercially available from the American Type Culture Collection (ATCC; Manassas, Va.) under accession number CRL-2256. RBL-2H3 cells were passively sensitized with mouse IgE anti-dinitrophenyl conjugated to bovine serum albumin (DNP-BSA) monoclonal antibody for 22 hours, and then stimulated with DNP-BSA (antigen) to induce cell degranulation (FIG. 1).

neurokinin-1 receptor [2] = biological target: neurokinin-1 receptor (Homo sapiens, UniProt P25103); settings: cited from earlier work
RBL-2H3 cells [3] = assay: Cell viability by trypan blue exclusion test in RBL-2H3 cells; type: cell-based, rat; settings: IgE-sensitized RBL-2H3 cells stimulated with DNP-BSA (FIG. 3)
Method: as §1, with “1). To address the issue of an autocrine tachykinergic regulation of metachromatic cell degranulation in response to antigenic activation, IgE-sensitized RBL-2H3 cells were pre-treated with a selective NK-1 receptor antagonist prior to antigen stimulation.” for “1).”

RBL-2H3 cells [4] = assay: Histamine immunoreactivity (intracellular histamine pools) in IgE-sensitized RBL-2H3 cells stimulated with DNP-BSA; type: cell-based, rat; settings: pretreatment 10 μM; DNP-BSA 40 ng/ml
Description: Data analysis using the macro built under the Image-Pro Plus platform enabled the representation of the frequency distribution of the maximal intensity for histamine immunoreactivity into RBL-2H3 cells. We arbitrarily divided basophils into six subgroups according to the range of maximal fluorescence intensity detected into the cells, e.g., 300 to 499 IAU (intensity arbitrary unit) or 900-1100 IAU. […] Therefore, frequency distribution analyses confirmed the β-hexosaminidase data by showing that blocking NK-1 receptors inhibits FcεRI clustering-induced metachromatic cell degranulation.

RBL-2H3 cells [5] = assay: Calcium ionophore A23187-induced β-hexosaminidase release in RBL-2H3 cells; type: cell-based, rat
Method: RBL-2H3 cells were stimulated with the calcium ionophore A23187 (SigmaAldrich #C7522) in a concentration-dependent manner to induce metachromatic cell degranulation FIG. 10). […] The maximal inhibition is obtained at the concentration of 10 μM of L-703,606 (FIG. 11).

RBL-2H3 cells [6] = assay: Intracellular calcium changes (Fluo-3 AM, epifluorescence microscopy) in RBL-2H3 cells; type: cell-based, rat; settings: Fluo-3 AM loaded cells (FIG. 12)
NK-1 receptors = biological target: T1, NK-1 receptors (Homo sapiens, UniProt P25103); settings: CHO cells expressing NK-1 receptors, cited from earlier work
T1 construct: expressed in transfected cells; host or cells: CHO cells

neurokinin-1 receptor [7] = biological target: T2, neurokinin-1 receptor (Rattus norvegicus, UniProt P14600); settings: rat brain; cited from earlier work
T2 construct: from tissue; host or cells: rat brain

neurokinin-1 receptor [8] = biological target: T3, neurokinin-1 receptor (Cavia porcellus, UniProt P30547); settings: guinea pig ileum; cited from earlier work
T3 construct: pA2: 7.16 (guinea pig ileum); from tissue; host or cells: guinea pig ileum

[9] = antagonist 10 μM, DNP-BSA 5 ng/ml
[10] = antagonist 10 μM, DNP-BSA 40 ng/ml

Chain of neurokinin-1 receptor (Homo sapiens, UniProt P25103) (P25103 whole entry): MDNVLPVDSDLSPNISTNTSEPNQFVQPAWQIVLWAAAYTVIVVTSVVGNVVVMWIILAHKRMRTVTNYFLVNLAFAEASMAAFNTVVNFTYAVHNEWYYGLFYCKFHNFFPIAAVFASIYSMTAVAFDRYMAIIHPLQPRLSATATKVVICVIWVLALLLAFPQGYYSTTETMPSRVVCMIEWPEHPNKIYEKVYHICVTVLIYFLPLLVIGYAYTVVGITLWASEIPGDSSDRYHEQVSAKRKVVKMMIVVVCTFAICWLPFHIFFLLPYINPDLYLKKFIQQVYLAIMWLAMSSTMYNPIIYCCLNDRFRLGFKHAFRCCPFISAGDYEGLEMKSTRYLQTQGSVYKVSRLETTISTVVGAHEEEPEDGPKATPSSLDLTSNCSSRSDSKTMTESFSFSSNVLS
T1 sequence (P25103 whole entry): as above
T3 sequence (P30547 whole entry): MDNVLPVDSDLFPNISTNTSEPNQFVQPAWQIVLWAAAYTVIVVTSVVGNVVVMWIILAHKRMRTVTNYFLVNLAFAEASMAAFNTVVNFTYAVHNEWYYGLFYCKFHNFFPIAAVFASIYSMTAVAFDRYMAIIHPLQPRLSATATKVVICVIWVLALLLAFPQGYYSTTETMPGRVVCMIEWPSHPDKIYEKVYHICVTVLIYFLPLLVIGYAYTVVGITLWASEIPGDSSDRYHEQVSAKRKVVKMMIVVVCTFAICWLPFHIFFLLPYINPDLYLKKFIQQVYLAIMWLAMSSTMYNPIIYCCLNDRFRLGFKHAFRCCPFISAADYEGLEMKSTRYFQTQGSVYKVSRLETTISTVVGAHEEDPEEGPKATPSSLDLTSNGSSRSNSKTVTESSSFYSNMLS
T2 sequence (P14600 whole entry): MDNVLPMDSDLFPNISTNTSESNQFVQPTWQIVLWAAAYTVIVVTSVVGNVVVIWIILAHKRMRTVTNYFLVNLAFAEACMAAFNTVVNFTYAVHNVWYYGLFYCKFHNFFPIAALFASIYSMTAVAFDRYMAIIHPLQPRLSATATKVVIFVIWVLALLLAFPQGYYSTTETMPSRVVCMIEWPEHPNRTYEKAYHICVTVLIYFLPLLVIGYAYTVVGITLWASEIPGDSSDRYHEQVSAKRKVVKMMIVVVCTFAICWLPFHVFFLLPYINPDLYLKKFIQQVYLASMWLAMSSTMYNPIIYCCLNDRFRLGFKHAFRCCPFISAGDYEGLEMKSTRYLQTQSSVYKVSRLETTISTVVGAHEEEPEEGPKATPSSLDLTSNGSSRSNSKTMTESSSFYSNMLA

[D-Arg^1, D-Phe^5, D- Trp^7,9, Leu^11] substance P [Antagonist D]
effect on antigenic degranulation / β-hexosaminidase release (RBL-2H3 cells [1]): did not alter; also recorded: lack of inhibition | Affinity (selectivity in words) (neurokinin-1 receptor [2]): Non-selective

Ic1ccccc1CNC1C2CCN(CC2)C1C(c1ccccc1)c1ccccc1.O=C(O)C(=O)O [L-703,606, cis-2-(Diphenylmethel)-N-([2-iodophenyl]methyl)-1-azabicyclo (2.2.2) octan-3-amine]
effect on antigen-induced maximal degranulation (RBL-2H3 cells [1]; L-703,606 5 μM alone, antigen 40 ng/ml): weak effect | effect on inhibition by Tacrolimus of antigen-induced maximal cell degranulation (RBL-2H3 cells [1]; L-703,606 10 μM, Tacrolimus 0.01 μM): potentiates | effect on inhibition by cyclosporin A of antigen-induced maximal cell degranulation (RBL-2H3 cells [1]; L-703,606 10 μM, cyclosporin A 0.1 μM): potentiates | effect on inhibition by FTY720 of antigen-induced maximal cell degranulation (RBL-2H3 cells [1]; L-703,606 1, 5 and 10 μM, FTY720 5 μM): potentiates | effect on inhibition by BAY 61-3606 of antigen-induced maximal cell degranulation (RBL-2H3 cells [1]; L-703,606 5 and 10 μM, BAY 61-3606 100 and 250 nM): potentiates | effect on inhibition by LY-294,002 of antigen-induced maximal cell degranulation (RBL-2H3 cells [1]; L-703,606 5 and 10 μM, LY-294,002 1 and 10 μM): potentiates | effect on inhibition by PD98059 of antigen-induced maximal cell degranulation (RBL-2H3 cells [1]; L-703,606 5 and 10 μM, PD98059 5, 10 and 25 μM): potentiates | effect on inhibition by PP1 of antigen-induced maximal cell degranulation (RBL-2H3 cells [1]; L-703,606 5 and 10 μM, PP1 1 and 5 μM): potentiates | effect on inhibition by SB202190 of antigen-induced maximal cell degranulation (RBL-2H3 cells [1]; L-703,606 5 and 10 μM, SB202190 10 and 25 μM): potentiates | effect on antigen-induced 50% of cell degranulation (RBL-2H3 cells [1]; [9]): completely abolished | reduction of maximal antigenic degranulation response (RBL-2H3 cells [1]; [10]): ~50% | inhibition of antigen-induced β-hexosaminidase release (RBL-2H3 cells [1]; antagonist 1 to 10 μM, DNP-BSA 5 ng/ml or 40 ng/ml): concentration-dependent inhibition | effect on basal release of β-hexosaminidase (RBL-2H3 cells [1]; no antigen, data not shown): did not change | most efficient inhibitory concentration for β-hexosaminidase release (RBL-2H3 cells [1]; range tested 1 to 10 μM): 10 µM | cell viability (trypan blue exclusion) (RBL-2H3 cells [3]): did not alter cell viability | cell viability (trypan blue exclusion) (RBL-2H3 cells [3]; listed as L-703,606 oxalate salt): not attributable to cell death | depletion of histamine intracellular pools (RBL-2H3 cells [4]): mostly abolished | concentration giving maximal inhibition of calcium ionophore-induced degranulation (RBL-2H3 cells [5]; calcium ionophore A23187): 10 µM | inhibition of calcium ionophore-induced activation and degranulation (RBL-2H3 cells [5]; calcium ionophore A23187 (FIG. 11)): inhibit, in a concentration-dependent manner | effect on calcium ionophore-induced calcium signals (RBL-2H3 cells [6]): unlikely to be attributable to inhibition of calcium ionophore-induced extracellular calcium signals | IC50 (NK-1 receptors): 2 nM | Kd (neurokinin-1 receptor [2]; 35% sites): 1.5 nM | Kd (neurokinin-1 receptor [2]; 65% sites): 0.04 nM

Cl.O=c1cc(N2CCOCC2)oc2c(-c3ccccc3)cccc12 [LY-294,002]
blockade of IgE-dependent activation and degranulation of metachromatic cells, agent alone (RBL-2H3 cells [1]): potent blocker

FC(F)(F)c1cc(CO[C@@H]2CCCN[C@@H]2c2ccccc2)cc(C(F)(F)F)c1 [L-733,060, ((2S,3S)-3-[[3,5-bis (Trifluoromethyl)phenyl]methoxy]-2-phenylpiperidine hydrochloride]
effect on antigen-induced 50% of cell degranulation (RBL-2H3 cells [1]; [9]): completely abolished | reduction of maximal antigenic degranulation response (RBL-2H3 cells [1]; [10]): ~55% | IC50 (NK-1 receptors; read-out: IC50): 1 nM

COc1cc(C(=O)N2CC[C@](CCN3CCC(C(N)=O)(c4ccccc4)CC3)(c3ccc(Cl)c(Cl)c3)C2)cc(OC)c1OC [MDL 105,212]
effect on antigenic degranulation / β-hexosaminidase release (RBL-2H3 cells [1]): lack of inhibition | effect on cell degranulation induced by 40 ng/ml DNP-BSA (RBL-2H3 cells [1]; antagonist 1 μM (but not 10 μM), DNP-BSA 40 ng/ml): significantly increased | effect on antigen concentration leading to 50% of maximal degranulation (RBL-2H3 cells [1]; antagonist at both 1 μM and 10 μM, DNP-BSA 5 ng/ml): had no effect

COc1ccccc1CC(=N)N1C[C@@H]2C(=O)CCC(c3ccccc3)(c3ccccc3)[C@@H]2C1 [RP 67580, (3aR,7aR)-Octahydro-2-[1-imino-2-(2-methoxyphenyl)ethyl]-7,7-diphenyl-4H-isoindol]
decrease of degranulation induced by 5 ng/ml DNP-BSA (RBL-2H3 cells [1]; [9]): ~50% | effect on maximal antigenic degranulation (RBL-2H3 cells [1]; [10]): no significant effect | IC50 (neurokinin-1 receptor [7]): 10 nM | pA2 (neurokinin-1 receptor [8]): 7.16

COc1cccc(-c2cc(=O)c3ccccc3o2)c1N [PD98059]
blockade of IgE-dependent activation and degranulation of metachromatic cells, agent alone (RBL-2H3 cells [1]): potent blocker

COc1ccc(-c2cc3nccn3c(Nc3ncccc3C(N)=O)n2)cc1OC [BAY 61-3606]
blockade of IgE-dependent activation and degranulation of metachromatic cells, agent alone (RBL-2H3 cells [1]): potent blocker

C=CC[C@@H]1/C=C(\C)C[C@H](C)C[C@H](OC)[C@H]2O[C@@](O)(C(=O)C(=O)N3CCCC[C@H]3C(=O)O[C@H](/C(C)=C/[C@@H]3CC[C@@H](O)[C@H](OC)C3)[C@H](C)[C@@H](O)CC1=O)[C@H](C)C[C@@H]2OC [Tacrolimus]
blockade of IgE-dependent activation and degranulation of metachromatic cells, agent alone (RBL-2H3 cells [1]): potent blocker

CCCCCCCCc1ccc(CCC(N)(CO)CO)cc1.Cl [FTY720]
blockade of IgE-dependent activation and degranulation of metachromatic cells, agent alone (RBL-2H3 cells [1]): potent blocker

Oc1ccc(-c2nc(-c3ccncc3)c(-c3ccc(F)cc3)[nH]2)cc1 [SB202190]
blockade of IgE-dependent activation and degranulation of metachromatic cells, agent alone (RBL-2H3 cells [1]): potent blocker

C[C@@H]1C[C@H]2[C@@H]3CCC4=CC(=O)C=C[C@]4(C)[C@@]3(F)[C@@H](O)C[C@]2(C)[C@@]1(O)C(=O)CO [dexamethasone]
reduction of maximal degranulation (RBL-2H3 cells [1]; dexamethasone 10^−8 M alone, antigen 40 ng/ml): 50%
